Assay results as given in paper doi:10.1101/2022.02.09.479090v1 (biorxiv, 2022).
Read-outs that look alike come from different tables or passages of the source. Each block holds one molecule with its values, some of them ahead of it.

Key:
[1] = target: T1, RLuc8 (Renilla reniformis, UniProt P27652, A143M/A55T/C124A/K136R/M185V/M253L/S130A/S287L); test: biochemical
[2] = tested on: AncFT; test: luminescence progress curves, global numerical fit; assay type: biochemical, synthetic construct; conditions: O2 co-substrate; 100 mM phosphate pH 7.5, 37 °C
[3] = target: AncFT; test: anaerobic fluorescence titration; parameters: species or system synthetic construct; conditions: 100 mM potassium phosphate pH 7.5, 30 °C
[4] = target: T1, RLuc8; test: biochemical; remark: listed apart in the source
[5] = target: AncFT; test: anaerobic fluorescence titration; parameters: species or system synthetic construct; conditions: 100 mM potassium phosphate pH 7.5, 30 °C; remark: listed apart in the source
[6] = target: T1, RLuc8; test: biochemical; remark: listed apart in the source
[7] = target: AncFT; test: luminescence progress curves, global numerical fit; assay type: biochemical, synthetic construct; conditions: competitive versus coelenterazine; 100 mM phosphate pH 7.5, 37 °C
[8] = substrate: Oc1ccc(Cc2nc3c(Cc4ccccc4)nc(-c4ccc(O)cc4)cn3c2O)cc1; test: purified protein; conditions: O2 co-substrate, 100 mM phosphate pH 7.5, 37 °C

Molecule: O=C(Cc1ccc(O)cc1)Nc1ncc(-c2ccc(O)cc2)nc1Cc1ccccc1 [CEI, coelenteramide]
- Kd [4]: 22 ± 2 µM
- Kd [5]: 16 ± 2 µM

B1: RLuc8 (Renilla reniformis; A143M/A55T/C124A/K136R/M185V/M253L/S130A/S287L) (protein)
chain: MTSKVYDPEQRKRMITGPQWWARCKQMNVLDSFINYYDSEKHAENAVIFLHGNATSSYLWRHVVPHIEPVARCIIPDLIGMGKSGKSGNGSYRLLDHYKYLTAWFELLNLPKKIIFVGHDWGAALAFHYAYEHQDRIKAIVHMESVVDVIESWDEWPDIEEDIALIKSEEGEKMVLENNFFVETVLPSKIMRKLEPEEFAAYLEPFKEKGEVRRPTLSWPREIPLVKGGKPDVVQIVRNYNAYLRASDDLPKLFIESDPGFFSNAIVEGAKKFPNTEFVKVKGLHFLQEDAPDEMGKYIKSFVERVLKNEQ
- Km [8]: 1.66 µM

More lines, now with the values ahead:

- Kd [1]: 37 ± 15 µM
- Km [2]: 0.042 µM
- Kd [3]: 12 ± 5 µM
Molecule: Oc1ccc(Cc2nc3c(Cc4ccccc4)nc(-c4ccc(O)cc4)cn3c2O)cc1 [CTZ, 2-(p-hydroxybenzyl)-6-(p-hydroxyphenyl)-8-benzylimidazo [1,2-a]pyrazine-3-(7H)-one]

- Ki [6]: 16.1 µM
- Ki [7]: 0.092 ± 0.002 µM
Molecule: O=c1n(Cc2ccc(O)cc2)nc2c(Cc3ccccc3)nc(-c3ccc(O)cc3)cn12 [azaCTZ, 8-Benzyl-2-(4-hydroxybenzyl)-6-(4-hydroxyphenyl)-[1,2,4]triazolo[4,3-a]pyrazin-3(2H)-one]
